Measurements published in ChEMBL document CHEMBL3714740, “alpha-amino acid derivatives and medicaments containing the same as an active ingredient” (2011).
The source made the active and inactive calls. The calls are words filed in the database; no cut-off is given here.

Assays:
SW-620 = test: Antitumor activity against human SW620 cells xenografted in nude Balb/c mouse assessed as inhibition of tumor volume at 100 mg/kg administered orally using gastric tube once daily for 17 days starting at mean tumor volume of 200 to 250 mm3; assay type: functional, organism-based
DU-145 = test: Antitumor activity against human DU145 cells xenografted in nude Balb/c mouse assessed as inhibition of tumor volume at 100 mg/kg administered orally using gastric tube once daily for 14 days starting at mean tumor volume of 200 to 250 mm3; assay type: functional, organism-based; details: Prostate
[1] = Antiproliferative activity against human SW620 cells assessed as inhibition of cell proliferation incubated for 4 days by CCK8 assay; assay type: functional, cell-based; details: SW-620, 96 h

SMILES | inhibition (SW-620) | inhibition (DU-145) | IC50 [1] [nM]
CNC(=O)c1cc(NC2(C(=O)Nc3nc4ccc5[nH]ncc5c4s3)CC2)ccc1Cl | Active | Active | 
CC(C)(C)C(=O)Nc1cc(NC(C)(C)C(=O)Nc2nc3ccc4[nH]ncc4c3s2)ccc1Cl |  |  | 2700
CC(C)(Nc1ccc(Cl)c(OCC(O)CO)c1)C(=O)Nc1nc2c(C(F)(F)F)cc3[nH]ncc3c2s1 (configuration not stated) |  | Active | 
CC(C)(Nc1ccc(Cl)cc1)C(=O)Nc1nc2ccc3[nH]ncc3c2s1 | Active | Active | 
CCNC(=O)c1cc(NC(C)(C)C(=O)Nc2nc3c(C(F)(F)F)cc4[nH]ncc4c3s2)ccc1Cl |  | Active | 
